We go through two molecules from publication PMC6949291, “An evolutionarily conserved iron-sulfur cluster underlies redox sensory function of the Chloroplast Sensor Kinase” (Communications Biology, 2020).

One series has as its target T1, Syn-CSK (Hik2) (Synechocystis sp. PCC 6803, UniProt P73276).
T1 construct: octamer
As to the kind of experiment: autophosphorylation, autoradiography. It counts as biochemical. The settings on record: 0.5 mM, MgCl2, pH 8, 22 °C, reductant of the [3Fe-4S] cluster, inhibitor of autokinase activity.

Series [1] concerns the molecule itself. The series is described as follows: SEC; Superdex 200 10/300GL Increase; air-oxidized protein eluted with 20 mM Tris-HCl pH 8 and 10 mM NaCl (legend; methods say 20 mM NaCl), or the same buffer with 2 mM sodium dithionite; mass from a calibration curve.

As for `Cc1c(C)c(O)c(C)c(C)c1O` [duroquinol], the “autophosphorylation with [γ-^32P]ATP, autoradiography” value on Syn-CSK (Hik2) was “Treatment with reducing agents: dithionite, duroquinol, or decylPQH2 inhibit Syn-CSK”.

B1: Synechocystis sp. PCC 6803 Histidine kinase 2 (Hik2), reconstituted holoprotein (enzyme, UniProt P73276 1-434, looked up)
chain: MAGSISSMYSPSAGLISLCQSQVRLLQQGLRVDWCGVYLNQEETEQGLVPLVVSHGSTLVESESYGLISLPQGEVSPPMDDFSLPAVPVGVGQLSRRSRLEPPPFDADKRLVLPLVYGEEMVGLLVIHRSQGQWHGEEMMQLEAIAKSLAVACLLDQQQDWYRQAWEEQNQQYQWERQHWADLLHQLRNPLTALKTFSKLLLKRWHGDNKSQQVVEGIVRQGEHLQELLQSFEASQSQGPEAVPLLSSSPVTTIQVLPPADRVETMPLANFSLGEVLPPILLAHQAIAAERNITLTAQIALIDTVVMANRLALREVVNNLLDNGIKYTPNGGLVEVSLALEKVSSSGMDWATLAIADTGYGIPPEDQQKIFERNYRGVQGRGSINGTGLGLAIVADLVAQMGGKITVTSPNGLSRDPDQPGSTFTLWLRSGEQV
notes: Histidine kinase 2 (Hik2, slr1147), the cyanobacterial CSK homologue, Synechocystis sp; Each monomer carries one [3Fe-4S] cluster (holoprotein after reconstitution with iron and sulfide); also called Syn-CSK; holoSyn-CSK
As to B1, the “stoichiometry N” value in series [1] is 8.
